These results are taken from patent US12440493B2, “Combination therapy for treating cancer comprising substituted piperazines” (Eli Lilly and Company, priority 2020, dated 2025).

One assay has as its system 2-HG production. Description: Plasma 2-HG inhibition (LC-MS metabolite analysis in plasma of AML PDx model). The class given is in vivo, human.
Assay [1] deals with IDH1(R132H) primary human AML cells. Nature of the assay: AML cell differentiation in blood (flow cytometry, % hCD33+hCD11b+ of hCD45+ cells), human AML PDx models in NSG mice. It is filed as in vivo. The note with it: for AML cell differentiation (% hCD33 + hCD11b+ (of hCD45+ cells)): F: 50 mg/kg Midostaurin, QD, PO, one animal. How it is done: (§1) Compounds and Formulation. For in vivo studies, each test article is prepared at an appropriate concentration with vehicle. […] Compound A is prepared fresh at the appropriate concentrations with vehicle every 7 days and stored at 4° C. between doses. […] Cytarabine is prepared fresh weekly by dilution with sterile saline from stock solution of Cytarabine (injection 20 mg/mL, (Pfizer injectables')). Azacitidine (Sigma, Lot #MKBR7212) is formulated in sterile water and is prepared fresh daily immediately before dosing. In vivo human AML PDx models. […] Two models are used in the studies: […] As needed, splenocytes from tumor-bearing mice are used to propagate and expand the models, as described. Each test article is prepared as described above at an appropriate concentration with vehicle to give animals the doses tested in this study at a dosing volume of 10 μL/gram body weight. Mice receiving Compound A (PO, QD) are treated at the indicated doses for the duration of the study. The combination agents are dosed as follows: […] Treated mice are assessed in comparison to vehicle treated and naïve (non-tumor bearing) control mice. Body weight is recorded twice per week. […] AML PDx model propagation. […] Spleens are processed and splenocytes isolated as described below. Two hundred μL per subject of the splenocyte prep is injected IV (intravenous, tail vein) into recipient NSG mice. […] Once engraftment is confirmed, the mice are monitored biweekly until ready to be put on study. […] Submandibular blood is collected. Spleen/Splenocyte Processing and Prep. After excision, a spleen is weighed, and […] is placed in a standard sterile 15 mL polypropylene conical tube containing PBS, and placed on ice. […] The spleen is placed in ice cold sterile PBS in a 15 mL collection tube. The spleen is removed from the collection tube and placed in a 100 micron 50 mL conical tube cell strainer (BD Falcon #352360). The spleen is processed by gentle rubbing of the spleen tissue against the surface of the cell strainer with the end of a 5 mL syringe plunger in a circular motion. The surface of the strainer is rinsed with 10 mL room temperature sterile DPBS (HyClone SH30028) 3 times during the process. […] The cell pellet is collected by centrifugation (300×g) and washed three times with 30 mL sterile DPBS. The cells are counted and resuspended in DPBS at the desired implant concentration. Bone Marrow Collection. […] Flow cytometry analysis of human white cells. Submandibular blood samples from in vivo studies are collected. Fluor-conjugated antibody stains are added according to the manufacturer's instructions (anti-human CD33-PE (clone WM53, BD Cat #555450), anti-human CD14-APC (clone MφpP9, BD Cat #340436), anti-human CD15-V450 (clone HI98, BD Cat #561584), anti-human CD117-BV421 (clone YB5.B8, BD Cat #562434), anti-human […]7 (clone ICRF44, BD Cat #557754), anti-human […]7 (clone HI30, BD Cat #557748), and anti-human CD3-FITC (clone SK7, BD Cat #340542)). The samples are incubated for 30 minutes at room temperature, protected from light. After the incubation, 1.5 mL 1×BD Lyse/Fix (37° C., (BD #558049)) is added to each sample and incubated for 12 minutes at room temperature. The tubes are centrifuged at 300×g for 7 minutes. BD Lyse/Fix solution is aspirated and the cell pellet washed with stain/wash buffer 3 times (1 wash step consisted of: pellet resuspended in 3 mL stain/wash buffer, centrifuged at 300×g, aspirated wash). Fixed cells are then resuspended in 300 to 400 μL stain/wash buffer. Samples are analyzed on a Becton Dickinson FACSVerse Flow cytometer (Cat #651155 Serial #Z6511550447) using standard flow cytometry principles and techniques. Samples are analyzed on the same day as they are stained and fixed. Population gating and data analysis of percent population are performed in the FACSuite software on the FACSVerse cytometer. Percent population values from the data analysis are plotted in Graphpad Prism or in JMP13. […]
On the technique in general: In flow cytometry, cells or beads pass a laser one at a time.

The test system is the same in assay [2]. Nature of the assay: Bone marrow AML clearance (flow cytometry), human AML PDx models in NSG mice. It is filed as in vivo. How it is done:
as §1

For assay [3] the test system is unchanged. Nature of the assay: AML clearance in peripheral blood (flow cytometry, % hCD33+hCD45+ of total white cells), human AML PDx models in NSG mice. The class given is in vivo. The note with it: for AML clearance (% hCD33 + hCD45+ (of total white cells)): 50 mg/kg Midostaurin, QD, PO, each value one animal, 50 mg/kg; for % peripheral blood AML cells (treatment group value): group F: midostaurin (50 mg/kg). How it is done: as §1

The mark [4] stands for this setting: plasma, F: 50 mg/kg Midostaurin, QD, PO, one line per animal.
Setting [5] is: 50 mg/kg Midostaurin, QD, PO, each line one animal.

Where “and” joins values, the source holds several entries; their conditions need not be identical. Identical values can stand only once.

With `CO[C@@H]1[C@H](N(C)C(=O)c2ccccc2)C[C@H]2O[C@]1(C)n1c3ccccc3c3c4c(c5c6ccccc6n2c5c31)C(=O)NC4` [Midostaurin, reference compound], the “% plasma 2-HG (treatment group value)” value in the assay on 2-HG production (group F: midostaurin (50 mg/kg), vehicle 100%) was determined as 70%. Besides, in the assay on 2-HG production (setting [4]), the 2-HG was 14.919 µM and 11.402 µM and 7.494 µM and 21.55 µM and 10.075 µM. The “Naive Subtracted 2-HG” value with 2-HG production (setting [4]) is 12.51 µM and 8.993 µM and 5.085 µM and 19.141 µM and 7.666 µM. Also, the “AML cell differentiation (% hCD33 + hCD11b+ (of hCD45+ cells))” value is 25.48% and 12.53% and 9% and 38.3% and 27.14% in assay [1] (treatment day 7); 25.27% and 17.13% and 9.1% and 36.3% and 25.56% in assay [1] (treatment day 23); 45.81% and 34.03% and 21.16% and 47.53% and 25.64% in assay [1] (treatment day 36); 43.86% and 28.75% and 20.78% and 40% and 30.3% in assay [1] (treatment day 50); 19.58% and 13.81% and 18.12% and 19.57% in assay [1] (treatment day −8 (before treatment)). The “% AML cell differentiation (treatment group value)” value in assay [1] (day 50, group F: midostaurin (50 mg/kg), vehicle 28%) is 33%. The “Bone Marrow AML Clearance: % hCD33 + hCD45+ (% of white cells)” value in assay [2] (setting [5]) is 51.84% and 6.3% and 22.34% and 59.24% and 25.84%. Moreover, the “Bone Marrow AML Clearance: % hCD45+ (% of white cells)” value in assay [2] (setting [5]) was 51.3% and 6.25% and 22.22% and 58.42% and 25.71%. Besides, the “% human AML cells in bone marrow (of white cells; lower = more clearance)” value in assay [2] (group F: midostaurin (50 mg/kg), vehicle 86%) was 26%. Moreover, the “AML clearance (% hCD33 + hCD45+ (of total white cells))” value was 10.05% and 3.62% and 8.05% and 11.35% and 2.53% in assay [3] (Treatment day 7); 6.24% and 3.75% and 7.09% and 2.63% and 0.84% in assay [3] (Treatment day 23); 3.7% and 1.83% and 4.68% and 2.15% and 0.28% in assay [3] (Treatment day 36); 2.21% and 0.76% and 3.72% and 1.29% and 0.21% in assay [3] (Treatment day 50); 7.01% and 2.16% and 3.93% and 4.84% and 0.18% in assay [3] (Treatment day 64); 18.03% and 2.94% and 8.24% and 14.27% and 0.14% in assay [3] (Treatment day 78). Also, the “AML clearance (% hCD33 + hCD45+ (of total white cells))” value was 35.38% and 4.09% and 14.55% and 30.48% and 0.86% in assay [3] (Treatment day 92); 7.94% and 8.17% and 6.23% and 2.27% in assay [3] (Treatment day −8). In addition, the “% peripheral blood AML cells (treatment group value)” value in assay [3] (day 50, vehicle 32%) is on record as 1.1%; in assay [3] (day 64, vehicle 67%), 2.2%; in assay [3] (day 78, vehicle 129%) it was 3.9%.
